Measured values from patent publication US20110262442A1, “COMPOSITIONS FOR TREATING CNS DISORDERS” (Adenios, Inc., priority 2009, published 2011).

Assays:
blood brain barrier [1] = assay: Evans Blue dye extravasation across the blood brain barrier; assay type: in vivo, mice; conditions: single i.v. injection 100 μl 0.01 nM, 1 h before dye
Procedure: The objective of this experiment was to determine if the blood brain barrier could be modulated by activation of adenosine receptors. NECA is a non-selective adenosine receptor agonist, with similar affinities for A1, A2A and A3 adenosine receptors and a low affinity for the A2b adenosine receptor. In order to determine if activation of adenosine receptors would induce extravasation of Evans Blue dye across the blood brain barrier (BBB), mice were treated with: NECA, a non-selective adenosine receptor agonist (n=5, 100 μl 0.01 nM); SCH58261, an A2A adenosine receptor specific antagonist (n=5, 1 mg/kg); pertussis toxin, an agent known to induce BBB leakiness and as such used as a positive control (n=7, 200 μl); and, PBS as a vehicle control (n=5, 100 μl). CD73^−/− mice, which lack the ability to produce extracellular adenosine, were also treated with NECA (n=4, 100 μl 0.01 nM). Treatments were administered as a single i.v. injection one hour prior to i.v. injection of 200 μl 1% Evans Blue dye ([…] total dye injected). Four hours after administration of Evans Blue, mice were anesthetized with a ketamine/xylazine mix and perfused via the left ventricle with ice cold PBS. […] Following extraction, the tissue/solvent mixture was centrifuged at 500×g for 30 minutes and 100 μl of supernatant was read on a BioTex spectrophotometer at 620 nm. Data is expressed as μg Evans Blue/ml DMF.

hCMEC/D3 cells [2] = assay: Jurkat cell migration across hCMEC/D3-seeded Transwell (in vitro BBB); assay type: cell-based, human; conditions: hCMEC/D3 on Transwell, migrated cells counted after 24 hours
Source text: The blood brain barrier (“BBB”) is comprised of endothelial cells. During late stages of EAE, lymphocytes are known to cross the BBB. In order to determine if adenosine receptor stimulation of brain endothelial cells could promote lymphocyte migration through the BBB, an in vitro BBB was established. The human brain endothelial cell line hCMEC/D3 (Weksler et al., “Blood-brain Barrier-specific Properties of a Human Adult Brain Endothelial Cell Line,” […] (2005); Poller et al., “The Human Brain Endothelial Cell Line hCMEC/D3 as a Human Blood-brain Barrier Model for Drug Transport Studies,” J. Neurochem. 107(5):1358-1368 (2008), which are hereby incorporated by reference in their entirety) was obtained, which has been previously described as having BBB properties.
hCMEC/D3 cells were seeded onto Transwell and allowed to grow to confluencey. 2×10^6 Jurkat cells were added to the upper chamber with or without NECA (general adenosine receptor [AR] agonist), CCPA (A1 AR agonist), CGS 21860 (A2A AR agonist), or DMSO vehicle. After 24 hours, migrated cells in the lower chamber were counted. Values are relative to the number of cells that migrate through non-HCMECD3 seeded transwells.

Z310 cells = assay: Jurkat cell migration across Z310-seeded Transwell (choroid plexus); assay type: cell-based, murine; conditions: Z310 cells on Transwell, migrated cells counted after 24 hours, n=1
Procedure: The choroid plexus (“CP”) controls lymphocyte migration into the CNS. The CP expresses the A1 and A2A adenosine receptors. EAE is prevented in mice when A2A adenosine receptor activity is blocked. EAE is enhanced when the A1 adenosine receptor is missing. It was hypothesized that A2A adenosine receptor activation promotes lymphocyte migration across the CP. Z310 cells are a murine choroid plexus cell line. To test the hypothesis, Transwell membranes were seeded with Z310 cells and allowed to grow to confluencey. 2×10^6 Jurkat cells were added to the upper chamber with or with out NECA (n=1, general AR agonist), CCPA (n=1, AAR agonist), CGS 21860 (n=1, A2AAR agonist), or DMSO vehicle (n=1). After 24 hours, migrated cells in the lower chamber were counted. Values are relative to the number of cells that migrate through non-Z310 seeded transwells and the results are shown in FIG. 12.

hCMEC/D3 cells [3] = assay: cAMP levels in human brain endothelial cells (cAMP Screen kit); assay type: cell-based; conditions: 15 minutes treatment, various concentrations (CCPA: at high levels)
Procedure: Adenosine receptor activation regulates cAMP levels in cells. In order to determine the sensitivity of human brain endothelial cells to adenosine receptor induced cAMP regulation, human brain endothelial cells were cultured with adenosine receptor agonists at various concentrations, followed by cAMP level analysis, as shown in FIG. 13.
HCMECD3 cells were grown to confluencey on 24 well plates. As adenosine receptor (“AR”) stimulation is known to influence cAMP levels, cells were treated with or without various concentrations of NECA (general AR agonist), CCPA (A1 AR agonist), CGS 21860 (A2A AR agonist), DMSO vehicle, or Forksolin (induces cAMP). After 15 minutes, lysis buffer was added and the cells were frozen at −80 C to stop the reaction. Duplicate samples were used for each condition. cAMP levels were assayed using a cAMP Screen kit (Applied Biosystems, Foster City, Calif.).

blood brain barrier [4] = assay: Evans Blue dye extravasation across the blood brain barrier in mice immunized for EAE; assay type: in vivo; conditions: WT EAE mice; 100 μl 0.01 nM on day 1, 3, 5, 7, 9; dye on day 10
Procedure: In order to determine if activation of adenosine receptors would induce extravazation of Evans Blue dye across the blood brain barrier (BBB), mice were first treated on day one with NECA, a non-selective adenosine receptor agonist (n=2, 100 μl 0.01 nM); and, PBS as a vehicle control (n=2, 100 μl). On day 2 mice were then immunized with CFA-MOG35-55 and pertussis to induce EAE. Then NECA or PBS was administered every other day on day 3, day 5, day 7 and day 9. On day 10, mice were injected intravenously with 200 μl 1% Evans Blue dye ([…] total dye injected). Six hours after administration of Evans Blue, mice were anesthetized with a ketamine/xylazine mix and perfused via the left ventricle with ice cold PBS. Brains were harvested and homogenized in n,n-dimethylformamide (DMF) at 5 μl/mg (v:w). Tissue was incubated for 72 hours at room temperature in DMF to extract the dye. Following extraction, the tissue/solvent mixture was centrifuged at 500×g for 30 minutes and 100 μl of supernatant was read on a BioTex spectrophotometer at 620 nm.

Compound: CCNC(=O)[C@H]1O[C@@H](n2cnc3c(N)ncnc32)[C@H](O)[C@@H]1O [NECA, 5′-N-ethylcarboxamidoadenosine]
- Evans Blue dye migration across the BBB vs. PBS control (blood brain barrier [1]; CD73−/− mice): almost five fold increase
- Evans Blue dye migration across the BBB vs. control mice (blood brain barrier [1]; WT mice): increase over control mice
- lymphocyte (Jurkat) migration across the in vitro BBB (hCMEC/D3 cells [2]): induced some migration
- lymphocyte (Jurkat) migration across the CP (Z310 cells): induced migration
- cAMP levels (hCMEC/D3 cells [3]): increased cAMP levels
- BBB permeability (Evans Blue dye) over PBS control EAE mice (blood brain barrier [4]): increase in BBB permeability
